Assay results taken from US9950026B2, “Methods for reducing oxidative damage” (Cornell Research Foundation, Inc., priority 2004, dated 2018).
Where a SMILES comes first, the peptide text is derived from it. [ ]: non-standard residue; d: D form. Dmt = Cc1cc(O)cc(C)c1C[C@H](N)C(=O)O

What was measured:
Caco-2 cells = test: Mitochondrial potential (TMRM) after tBHP; type: cell-based, human; settings: tBHP 1 mM, SS-02 0.1 μM, 4 h
Experimental: Caco-2 cells were treated with tBHP (1 mM) in the absence or presence of SS-02 (0.1 μM) for 4 h, and then incubated with TMRM and examined under LSCM. In control cells, the mitochondria are clearly visualized as fine streaks throughout the cytoplasm.

N2A cells = test: Lipid peroxidation, HNE Michael adducts, after tBHP; type: cell-based, murine; settings: t-BHP 1 mM, 3 h
Experimental: Lipid peroxidation was evaluated by measuring HNE Michael adducts. 4-HNE is one of the major aldehydic products of the peroxidation of membrane polyunsaturated fatty acids. N2A cells were seeded on glass bottom dish 1 day before t-BHP treatment (1 mM, 3 h, 37° C., 5% CO2) in the presence of absence of SS-31 (10^−8 to 10^−10 M). Cells were then washed twice with PBS and fixed 30 min with 4% paraformaldehyde in PBS at RT and then washed 3 times with PBS. Cells were then permeabilized, treated with rabbit-anti-HNE antibody followed by the secondary antibody (goat anti-rabbit IgG conjugated to biotin). Cells were mounted in Vectashield and imaged using a Zeiss fluorescence microscope using an excitation wavelength of 460±20 nm and a longpass filter of 505 nm for emission.

mice treated with MPTP = test: MPTP animal model of Parkinson's Disease; type: in vivo; settings: MPTP 3 x 10 mg/kg, sacrificed one week later
Experimental: MPTP is a neurotoxin that selectively destroys striatal dopamine neurons and can be used as an animal model of Parkinson's Disease. MPP^+, a metabolite of MPTP, targets mitochondria, inhibits complex I of the electron transport chain and increases ROS production. MPP^+ is used in cell culture studied because cells are unable to metabolize MPTP to the active metabolite. MPTP is used for animal studies.
Three doses of MPTP (10 mg/kg) was given to mice (n=12) 2 h apart. SS-31 was administered 30 min before each MPTP injection, and at 1 h and 12 h after the last MPTP injection. Animals were sacrificed one week later and striatal brain regions were immunostained for tyrosine hydroxylase activity.
Three doses of MPTP (10 mg/kg) was given to mice (n=12) 2 h apart. SS-31 was administered 30 min before each MPTP injection, and at 1 h and 12 h after the last MPTP injection.
Animals were sacrificed one week later and dopamine, DOPAC and HVA levels were quantified by high pressure liquid chromatography.

[1] = system: G93A-SOD transfected murine neuroblastoma (N2A) cells; test: H2O2-induced cell death (LDH release); type: cell-based; settings: SS-31 between 1 and 100 μM added 1 h after exposure to H2O2
Experimental: FIG. 24. Increased hydrogen peroxide (H2O2) sensitivity of G93A-SOD transfected murine neuroblastoma (N2A) cells as compared to wildtype SOD-transfected N2A cells after addition of 0.5 or 1 mM H2O2 for 1 h. Cell death was quantified by measurement of the percentage of H2O2-induced LDH release of total cellular LDH-content. […] Values are means+S.D., n=4-5, *p<0.1, **p<0.05, Student's t-test.

Diabetic DBA/2 mice = test: Marginal islet cell mass transplantation model; type: in vivo
Experimental: FIG. 35A-35C. Reversal of diabetes following transplantation of a marginal mass of syngeneic islets. Diabetic DBA/2 mice received 200 syngeneic islet cells under the right kidney capsule. Reversal of diabetes was defined as random nonfasting blood glucose levels below 200 mg/dl on 3-consecutive days. (A) Blood glucose levels of each individual control mouse following transplantation of 200 syngeneic islets. (B) Blood glucose levels of each individual SS-31 treated mouse following transplantation of 200 syngeneic islets. (C) Reversal of diabetes following transplantation of a marginal islet cell mass in SS-31 treatment vs. control. Number of normoglycemic mice by day 1, 3, 5, 10 and 14 post transplantation and two-tailed P-valued calculated using chi-squared bivariate analysis are shown.
In a marginal islet cell mass transplantation model, 0 of 8 recipients of islets isolated from pancreas harvested from the control mice had successful reversal of hyperglycemia (defined as three consecutive blood glucose levels<200 mg/dl), whereas sustained normoglycemia occurred in 5 of ten recipients of islets isolated from pancreas from the SS-31 treated donor mice (FIG. 35).

## 2′,6′-Dmt-Arg-Phe-Lys-NH2 [SS-02]
Caco-2 cells
  mitochondrial depolarization caused by tBHP: protected against mitochondrial depolarization

## Cc1cc(O)cc(C)c1C[C@H](NC(=O)[C@H](N)CCCNC(=N)N)C(=O)N[C@@H](CCCCN)C(=O)N[C@@H](Cc1ccccc1)C(N)=O [SS-31, D-Arg-2′6′-Dmt-Lys-Phe-NH2] (H-[dR][Dmt]KF-NH2; N-terminus assumed)
N2A cells
  lipid peroxidation (HNE adducts): inhibited lipid peroxidation
Mice treated with MPTP
  loss of dopamine neurons (tyrosine hydroxylase immunostaining): dose-dependently prevented loss
  striatal DOPAC levels: dose-dependently increased
  striatal HVA levels: dose-dependently increased
  striatal dopamine levels: dose-dependently increased
[1]
  H2O2-induced cell death: significantly reduced
Diabetic DBA/2 mice; islets from SS-31 treated donor mice
  recipients with sustained normoglycemia: 5 of ten
Diabetic DBA/2 mice; mouse, in vivo
  effect of discontinuation of SS-31 treatment on day 10: did not result in return of hyperglycemia
  time of reversal of hyperglycemia post-transplant: ≤ 1 days
